Experimental data taken from ChEMBL document CHEMBL1201862, “PubChem BioAssay data set” (2004).
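Briefly, cells in 96-well plates were exposed to five compound concentrations for 48 h, and endpoints were estimated by linear interpolation. At the GI50, growth is halved.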 Active and inactive are the calls of the source. No stated cut-off is given here; in the data, active = GI50 up to about 1.1 µM and inactive = higher.

Columns and labels:
Assay in all cases: inhibition of tumour cell growth, NCI panel, 48 h
MDA-MB-231 = tested on: MDA-MB-231
SF-539 = tested on: SF-539
ACHN = tested on: ACHN
HCT-15 = tested on: HCT-15
UO-31 = tested on: UO-31
SK-MEL-2 = tested on: SK-MEL-2
CCRF-CEM = tested on: CCRF-CEM
MOLT-4 = tested on: MOLT-4
OVCAR-5 = tested on: OVCAR-5
HOP-92 = tested on: HOP-92
HOP-62 = tested on: HOP-62
NCI-H522 = tested on: NCI-H522
A498 = tested on: A498
SN12C = tested on: SN12C
KM12 = tested on: KM12
MDA-MB-435 = tested on: MDA-MB-435
SF-295 = tested on: SF-295
T47D = tested on: T47D
BT-549 = tested on: BT-549
IGROV-1 = tested on: IGROV-1

Structure (SMILES) | GI50 (MDA-MB-231) | GI50 (SF-539) | GI50 (ACHN) | GI50 (HCT-15) [µM] | GI50 (UO-31) | GI50 (SK-MEL-2) | GI50 (CCRF-CEM) | GI50 (MOLT-4) | GI50 (OVCAR-5) | GI50 (HOP-92) | GI50 (HOP-62) | GI50 (NCI-H522) | GI50 (A498) | GI50 (SN12C) | GI50 (KM12) | GI50 (MDA-MB-435) | GI50 (SF-295) | GI50 (T47D) | GI50 (BT-549) | GI50 (IGROV-1)
Cc1sc2nc(N(C)C)oc(=O)c2c1C | > 100 µM (inactive) | > 100 µM (inactive) | 79.8 µM (inactive) | 82.6 | 21.6 µM (inactive) | > 100 µM (inactive) | 94.6 µM (inactive) | 73.8 µM (inactive) | > 100 µM (inactive) | > 100 µM (inactive) | 51.5 µM (inactive) | 30.8 µM (inactive) | 81.3 µM (inactive) | 86.1 µM (inactive) | > 100 µM (inactive) | > 100 µM (inactive) | 61.2 µM (inactive) | 58.7 µM (inactive) | 15.8 µM (inactive) | > 100 µM (inactive)
CCCCN1C(=O)C[C@H]2[C@@H]3CCc4cc(OCCN5CCCC5)ccc4[C@H]3CC[C@]2(C)C1=O | 4.71 µM (inactive) | 9.71 µM (inactive) | 12.9 µM (inactive) | 6 | 4.6 µM (inactive) | 4.67 µM (inactive) | 4.06 µM (inactive) | 2.65 µM (inactive) | 11.4 µM (inactive) | 6.08 µM (inactive) | 4.07 µM (inactive) | 8.41 µM (inactive) | 14.7 µM (inactive) | 14.2 µM (inactive) | 7.94 µM (inactive) | 6.31 µM (inactive) | 3.9 µM (inactive) | 12.3 µM (inactive) | 13.7 µM (inactive) | 15.7 µM (inactive)
Cn1ccnc1Sc1ccc(/C=N\NC(=O)c2cccc(F)c2)cc1[N+](=O)[O-] | 80.2 µM (inactive) | 25.9 µM (inactive) | > 100 µM (inactive) | 78.7 | > 100 µM (inactive) | 30.8 µM (inactive) | > 100 µM (inactive) | > 100 µM (inactive) | > 100 µM (inactive) | 22.7 µM (inactive) | 37.3 µM (inactive) | 24.7 µM (inactive) | 29.8 µM (inactive) | 50.1 µM (inactive) | > 100 µM (inactive) | 61.1 µM (inactive) | 35.9 µM (inactive) | 36.1 µM (inactive) | 40.8 µM (inactive) | 18.8 µM (inactive)
CNC1C(O)C(OC2C(N)CC(N)C(OC3OC(CN)=CCC3N)C2O)OCC1(C)O (stereo not given) | > 100 µM (inactive) | > 100 µM (inactive) | > 100 µM (inactive) | > 100 | > 100 µM (inactive) | > 100 µM (inactive) | > 100 µM (inactive) | > 100 µM (inactive) | > 100 µM (inactive) | > 100 µM (inactive) | > 100 µM (inactive) | > 100 µM (inactive) | > 100 µM (inactive) | > 100 µM (inactive) | > 100 µM (inactive) | > 100 µM (inactive) | > 100 µM (inactive) | > 100 µM (inactive) | > 100 µM (inactive) | > 100 µM (inactive)
c1ccc2c(c1)CC1=C(O2)c2ccccc2OC1 | 31.8 µM (inactive) | 26.3 µM (inactive) | 34.2 µM (inactive) | 25.8 | 41.2 µM (inactive) | 23.5 µM (inactive) | 32.7 µM (inactive) | 23.9 µM (inactive) | > 100 µM (inactive) | 21.2 µM (inactive) | 74.5 µM (inactive) | 19.5 µM (inactive) | 61.1 µM (inactive) | 19.6 µM (inactive) | 29.1 µM (inactive) | 27.3 µM (inactive) | 39.1 µM (inactive) | 17 µM (inactive) | 25.1 µM (inactive) | 23.1 µM (inactive)
COC(=O)c1c(C)ccc2c(O)c3c(cc12)C(=O)c1c2c(cc(O)c1C3=O)C1(C)OC(C)(O2)C(O)C(N(C)C)C1O (stereo not given) | 1.38 µM (inactive) | 2.21 µM (inactive) | 1.23 µM (inactive) | 1.46 | 1.87 µM (inactive) | 2.24 µM (inactive) | 0.283 µM (active) | 0.543 µM (active) | 2.96 µM (inactive) | 1.82 µM (inactive) | 1.74 µM (inactive) | 1.22 µM (inactive) | 1.57 µM (inactive) | 2.41 µM (inactive) | 1.42 µM (inactive) | 1.62 µM (inactive) | 1.81 µM (inactive) | 2.76 µM (inactive) | 3.61 µM (inactive) | 1.06 µM (active)
Cn1c2ccccc2c2c(-c3ccccc3)cc3c(c21)C(=O)C=CC3=O | 2.43 µM (inactive) | 1.92 µM (inactive) | 1.63 µM (inactive) | 1.85 | 1.61 µM (inactive) | 3.03 µM (inactive) | 0.228 µM (active) | 0.28 µM (active) | > 8.51 µM (inactive) | 1.96 µM (inactive) | > 7.4 µM (inactive) | 1.23 µM (inactive) | 2.23 µM (inactive) | 2.39 µM (inactive) | 4.43 µM (inactive) | 1.92 µM (inactive) | > 10 µM (inactive) | 1.38 µM (inactive) | 1.6 µM (inactive) | 2.3 µM (inactive)
CSc1nc(O)c(C#N)c(-c2ccccc2)n1 | > 100 µM (inactive) | > 100 µM (inactive) | > 100 µM (inactive) | > 100 | 78.3 µM (inactive) | > 100 µM (inactive) | > 100 µM (inactive) | > 100 µM (inactive) | > 100 µM (inactive) | 97.5 µM (inactive) | > 100 µM (inactive) | 53.1 µM (inactive) | > 100 µM (inactive) | > 100 µM (inactive) | > 100 µM (inactive) | > 100 µM (inactive) | > 100 µM (inactive) | 64.9 µM (inactive) | > 100 µM (inactive) | > 100 µM (inactive)
COC(=O)CCSC1=CC(=O)c2nc3ccccc3c3ccnc1c23 | 27.5 µM (inactive) | 15.7 µM (inactive) | 19.4 µM (inactive) | 13.6 | 15.3 µM (inactive) | 23.2 µM (inactive) | 4.49 µM (inactive) | 9.95 µM (inactive) | 42.7 µM (inactive) | 25.7 µM (inactive) | 33 µM (inactive) | 1.39 µM (inactive) | > 84.7 µM (inactive) | 19.7 µM (inactive) | 16.2 µM (inactive) | 7.4 µM (inactive) | 58.7 µM (inactive) | 18.7 µM (inactive) | 17.7 µM (inactive) | 16.7 µM (inactive)
Oc1ccc2ccccc2c1/C=N/Cc1c(O)ccc2ccccc12 | 82.4 µM (inactive) | 31.6 µM (inactive) | 28.4 µM (inactive) | 29.4 | 28.7 µM (inactive) | 71.8 µM (inactive) | 6.25 µM (inactive) | 13.2 µM (inactive) | > 100 µM (inactive) | 26.4 µM (inactive) | > 100 µM (inactive) | 6.53 µM (inactive) | 26.1 µM (inactive) | 32.8 µM (inactive) | 55.2 µM (inactive) | 77.6 µM (inactive) | 39.5 µM (inactive) | 19.1 µM (inactive) | 45.3 µM (inactive) | 35.6 µM (inactive)
COc1cccc(-c2cc(O)c3c(C)cc(C)nc3n2)c1 | 1.6 µM (inactive) | 0.455 µM (active) | 0.555 µM (active) | 0.399 | 0.867 µM (active) | 0.615 µM (active) | 0.431 µM (active) | 0.531 µM (active) | 2.57 µM (inactive) | 2.74 µM (inactive) | 1.09 µM (active) | 0.521 µM (active) | 0.419 µM (active) | 0.845 µM (active) | 0.264 µM (active) | 0.0512 µM (active) | 0.493 µM (active) | 14.5 µM (inactive) | 12.3 µM (inactive) | 0.486 µM (active)
COC(=O)[C@H]1CO[C@H]2C/C(C)=C/CC/C(C)=C/CC[C@@]3(C)O[C@@H]3C[C@H]21 | 10.8 µM (inactive) | 15.6 µM (inactive) | 17.5 µM (inactive) | 9.12 | 13.4 µM (inactive) | 18 µM (inactive) | 10 µM (inactive) | 10.4 µM (inactive) | > 50 µM (inactive) | 17.5 µM (inactive) | 15.8 µM (inactive) | 8.79 µM (inactive) | 22.9 µM (inactive) | 10.8 µM (inactive) | 9.57 µM (inactive) | 11.5 µM (inactive) | 17.9 µM (inactive) | 20.5 µM (inactive) | 7.8 µM (inactive) | 16 µM (inactive)
Cc1cc(N)ccc1/N=N\c1ccc(S(=O)(=O)CCOS(=O)(=O)O)cc1 | 0.215 µM (active) | 2.46 µM (inactive) | 3.24 µM (inactive) | 0.346 | 2 µM (inactive) | 0.605 µM (active) | 0.382 µM (active) | 0.23 µM (active) | 20.3 µM (inactive) | 5.02 µM (inactive) | 6.1 µM (inactive) | 0.274 µM (active) | 11.2 µM (inactive) | 0.463 µM (active) | 2.87 µM (inactive) | 0.216 µM (active) | 2.63 µM (inactive) | 12.2 µM (inactive) | 1.53 µM (inactive) | 0.713 µM (active)
COc1ccc(C2CC(c3c(O)ccc4ccccc34)=NN2C(C)=O)cc1OC (stereo not given) | 18.5 µM (inactive) | 18.7 µM (inactive) | 35.4 µM (inactive) | 30.1 | 23.1 µM (inactive) | 19.3 µM (inactive) | 12.6 µM (inactive) | 19.3 µM (inactive) | 40.6 µM (inactive) | 27.8 µM (inactive) | 26.9 µM (inactive) | 31.7 µM (inactive) | 24.3 µM (inactive) | 26.5 µM (inactive) | 34.2 µM (inactive) | 21.3 µM (inactive) | 37.4 µM (inactive) | 34.6 µM (inactive) | 17 µM (inactive) | 38.7 µM (inactive)
